According to EP4745137A1 (Gluetacs Therapeutics (Shanghai) Co., Ltd., priority 2023, dated 2025):
pIC50: −log10 of the molar value.

Legend:
[1] = target: T1, WEE1 (Homo sapiens, UniProt P30291+Q96SW2); experiment: Western-blot assay of substrate protein degradation in hPBMCs, WEE1; assay type: cell-based; conditions: 24 hours of compound treatment, compounds tested at 50 nM and 500 nM (concentration of the table not stated)
T1 construct: endogenous in cells; host or cells: hPBMCs (Milecell Biotechnologies)

[2] = target: T2, IKZF1 (Homo sapiens, UniProt Q13422+Q96SW2); experiment: Western-blot assay of substrate protein degradation in hPBMCs, IKZF1; assay type: cell-based; conditions: 24 hours of compound treatment, compounds tested at 50 nM and 500 nM (concentration of the table not stated)
T2 construct: endogenous in cells; host or cells: hPBMCs (Milecell Biotechnologies)

[3] = target: T3, IKZF2 (Homo sapiens, UniProt Q96SW2+Q9UKS7); experiment: Western-blot assay of substrate protein degradation in hPBMCs, IKZF2; assay type: cell-based; conditions: 24 hours of compound treatment, compounds tested at 50 nM and 500 nM (concentration of the table not stated)
T3 construct: endogenous in cells; host or cells: hPBMCs (Milecell Biotechnologies)

[4] = target: T4, IKZF3 (Homo sapiens, UniProt Q96SW2+Q9UKT9); experiment: Western-blot assay of substrate protein degradation in hPBMCs, IKZF3; assay type: cell-based; conditions: 24 hours of compound treatment, compounds tested at 50 nM and 500 nM (concentration of the table not stated)
T4 construct: endogenous in cells; host or cells: hPBMCs (Milecell Biotechnologies)

[5] = target: T5, CK1α (Homo sapiens, UniProt P48729+Q96SW2); experiment: Western-blot assay of substrate protein degradation in hPBMCs, CK1α; assay type: cell-based; conditions: 24 hours of compound treatment, compounds tested at 50 nM and 500 nM (concentration of the table not stated)
T5 construct: endogenous in cells; host or cells: hPBMCs (Milecell Biotechnologies)

[6] = target: T6, GSPT1 (Homo sapiens, UniProt P15170+Q96SW2); experiment: Western-blot assay of substrate protein degradation in hPBMCs, GSPT1; assay type: cell-based; conditions: 24 hours of compound treatment, compounds tested at 50 nM and 500 nM (concentration of the table not stated)
T6 construct: endogenous in cells; host or cells: hPBMCs (Milecell Biotechnologies)

[7] = target: T7, human Cereblon WT GST-tagged protein (Homo sapiens, UniProt Q96SW2); experiment: CRBN-binding affinity by HTRF (CEREBLON BINDING kit); conditions: HTRF inhibitory activity, CEREBLON BINDING kit; read-out: HTRF IC50
T7 construct: purchased CISBIO 64BDCRBNPEH
T7 sequence (Q96SW2 whole entry): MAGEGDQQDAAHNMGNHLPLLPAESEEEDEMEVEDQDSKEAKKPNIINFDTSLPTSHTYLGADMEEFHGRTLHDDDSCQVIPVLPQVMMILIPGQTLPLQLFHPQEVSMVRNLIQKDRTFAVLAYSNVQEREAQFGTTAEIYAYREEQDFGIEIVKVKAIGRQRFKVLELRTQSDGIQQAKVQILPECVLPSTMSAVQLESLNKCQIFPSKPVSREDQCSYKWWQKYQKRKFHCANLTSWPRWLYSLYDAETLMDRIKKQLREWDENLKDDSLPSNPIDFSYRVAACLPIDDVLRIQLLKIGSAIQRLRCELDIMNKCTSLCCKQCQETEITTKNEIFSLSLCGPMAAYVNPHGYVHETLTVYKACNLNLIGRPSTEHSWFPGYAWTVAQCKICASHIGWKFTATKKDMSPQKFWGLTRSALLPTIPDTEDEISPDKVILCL

T6 sequence (P15170 whole entry): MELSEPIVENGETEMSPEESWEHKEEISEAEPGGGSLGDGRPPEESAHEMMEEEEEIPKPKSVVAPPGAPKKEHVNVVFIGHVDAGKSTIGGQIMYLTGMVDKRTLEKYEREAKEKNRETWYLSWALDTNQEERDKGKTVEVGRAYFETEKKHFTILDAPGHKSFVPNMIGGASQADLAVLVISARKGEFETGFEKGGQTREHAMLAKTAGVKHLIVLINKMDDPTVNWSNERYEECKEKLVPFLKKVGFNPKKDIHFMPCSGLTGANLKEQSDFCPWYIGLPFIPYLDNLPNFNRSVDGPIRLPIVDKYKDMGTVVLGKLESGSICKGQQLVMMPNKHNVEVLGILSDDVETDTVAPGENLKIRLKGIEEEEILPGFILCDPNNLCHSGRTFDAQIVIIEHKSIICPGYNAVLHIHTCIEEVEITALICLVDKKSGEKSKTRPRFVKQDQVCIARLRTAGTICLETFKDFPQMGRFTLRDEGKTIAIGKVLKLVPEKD
T6 sequence (Q96SW2 whole entry): as the sequence (Q96SW2 whole entry) above
T6 sequence (Q16531 whole entry partner): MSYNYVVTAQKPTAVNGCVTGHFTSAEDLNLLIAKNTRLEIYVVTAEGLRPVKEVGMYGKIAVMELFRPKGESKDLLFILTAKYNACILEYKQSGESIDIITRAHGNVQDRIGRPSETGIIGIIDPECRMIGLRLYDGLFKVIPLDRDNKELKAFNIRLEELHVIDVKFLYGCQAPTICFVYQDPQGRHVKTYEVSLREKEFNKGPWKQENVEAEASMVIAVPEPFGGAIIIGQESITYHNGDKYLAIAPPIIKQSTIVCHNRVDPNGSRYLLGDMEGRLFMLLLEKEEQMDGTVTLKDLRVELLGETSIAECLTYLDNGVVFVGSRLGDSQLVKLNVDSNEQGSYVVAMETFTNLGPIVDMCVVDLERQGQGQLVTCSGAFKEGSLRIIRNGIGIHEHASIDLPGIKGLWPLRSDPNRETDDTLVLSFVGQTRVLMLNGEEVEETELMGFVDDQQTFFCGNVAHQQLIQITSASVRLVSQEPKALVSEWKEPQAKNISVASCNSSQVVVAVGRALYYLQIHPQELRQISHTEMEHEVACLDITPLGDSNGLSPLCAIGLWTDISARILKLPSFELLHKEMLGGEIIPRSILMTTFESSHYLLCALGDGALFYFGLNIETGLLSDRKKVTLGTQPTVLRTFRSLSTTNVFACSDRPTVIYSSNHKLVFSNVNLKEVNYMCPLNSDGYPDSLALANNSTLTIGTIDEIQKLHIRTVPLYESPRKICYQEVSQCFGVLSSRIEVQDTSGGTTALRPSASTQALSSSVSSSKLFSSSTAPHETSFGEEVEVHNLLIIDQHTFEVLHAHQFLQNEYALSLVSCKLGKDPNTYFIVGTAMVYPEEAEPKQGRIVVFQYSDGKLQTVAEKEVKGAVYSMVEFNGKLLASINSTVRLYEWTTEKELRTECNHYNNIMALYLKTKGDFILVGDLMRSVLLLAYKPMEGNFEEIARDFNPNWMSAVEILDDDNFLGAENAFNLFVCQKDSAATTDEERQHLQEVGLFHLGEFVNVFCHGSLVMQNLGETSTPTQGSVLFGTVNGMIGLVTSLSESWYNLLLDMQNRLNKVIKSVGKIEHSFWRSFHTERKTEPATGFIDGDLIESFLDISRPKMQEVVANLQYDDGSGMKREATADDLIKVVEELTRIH
T3 sequence (Q9UKS7 whole entry): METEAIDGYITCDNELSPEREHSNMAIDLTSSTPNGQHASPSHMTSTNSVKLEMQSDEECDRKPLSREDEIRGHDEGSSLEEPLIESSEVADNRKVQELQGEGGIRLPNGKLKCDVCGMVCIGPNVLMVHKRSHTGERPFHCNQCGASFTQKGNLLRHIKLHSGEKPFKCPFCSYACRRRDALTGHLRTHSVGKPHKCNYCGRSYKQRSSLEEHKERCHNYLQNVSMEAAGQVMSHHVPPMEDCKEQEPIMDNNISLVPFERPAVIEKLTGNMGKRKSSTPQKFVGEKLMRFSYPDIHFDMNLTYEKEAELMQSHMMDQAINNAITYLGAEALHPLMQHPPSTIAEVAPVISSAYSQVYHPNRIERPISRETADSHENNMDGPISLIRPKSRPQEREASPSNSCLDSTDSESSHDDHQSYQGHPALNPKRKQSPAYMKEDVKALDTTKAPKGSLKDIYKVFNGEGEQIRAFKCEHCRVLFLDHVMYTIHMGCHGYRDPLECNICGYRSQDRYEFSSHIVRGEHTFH
T3 sequence (Q96SW2 whole entry): as the sequence (Q96SW2 whole entry) above
T3 sequence (Q16531 whole entry partner): as the sequence (Q16531 whole entry partner) above
T1 sequence (P30291 whole entry): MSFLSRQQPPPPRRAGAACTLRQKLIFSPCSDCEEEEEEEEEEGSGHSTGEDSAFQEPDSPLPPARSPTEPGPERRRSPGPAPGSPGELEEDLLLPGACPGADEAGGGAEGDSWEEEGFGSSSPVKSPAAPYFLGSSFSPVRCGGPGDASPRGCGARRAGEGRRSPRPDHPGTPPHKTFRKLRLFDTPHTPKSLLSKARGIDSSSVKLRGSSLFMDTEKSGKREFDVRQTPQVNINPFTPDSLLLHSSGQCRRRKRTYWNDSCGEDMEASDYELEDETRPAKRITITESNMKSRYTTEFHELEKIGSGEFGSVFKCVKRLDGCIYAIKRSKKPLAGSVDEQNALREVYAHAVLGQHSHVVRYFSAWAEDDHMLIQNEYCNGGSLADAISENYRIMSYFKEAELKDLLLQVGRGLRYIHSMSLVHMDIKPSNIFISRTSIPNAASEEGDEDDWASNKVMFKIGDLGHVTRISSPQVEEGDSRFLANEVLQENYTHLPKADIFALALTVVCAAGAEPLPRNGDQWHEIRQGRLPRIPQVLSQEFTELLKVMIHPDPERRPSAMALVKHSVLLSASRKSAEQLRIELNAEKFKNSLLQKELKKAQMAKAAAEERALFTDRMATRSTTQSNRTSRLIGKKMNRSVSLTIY
T1 sequence (Q96SW2 whole entry): as the sequence (Q96SW2 whole entry) above
T1 sequence (Q16531 whole entry partner): as the sequence (Q16531 whole entry partner) above
T2 sequence (Q13422 whole entry): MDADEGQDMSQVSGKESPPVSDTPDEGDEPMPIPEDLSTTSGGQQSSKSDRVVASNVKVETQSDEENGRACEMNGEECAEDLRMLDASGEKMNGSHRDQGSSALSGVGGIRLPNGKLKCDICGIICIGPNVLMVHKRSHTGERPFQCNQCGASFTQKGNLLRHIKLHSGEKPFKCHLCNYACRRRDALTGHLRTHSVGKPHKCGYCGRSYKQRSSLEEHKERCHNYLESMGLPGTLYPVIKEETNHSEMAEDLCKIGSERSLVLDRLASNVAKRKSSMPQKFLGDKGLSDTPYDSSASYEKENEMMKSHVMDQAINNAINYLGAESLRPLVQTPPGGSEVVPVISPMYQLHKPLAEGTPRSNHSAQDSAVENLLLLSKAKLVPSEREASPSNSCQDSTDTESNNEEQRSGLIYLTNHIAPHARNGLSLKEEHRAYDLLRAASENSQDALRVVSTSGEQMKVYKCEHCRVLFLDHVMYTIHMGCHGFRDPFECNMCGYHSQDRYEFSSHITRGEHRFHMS
T2 sequence (Q96SW2 whole entry): as the sequence (Q96SW2 whole entry) above
T2 sequence (Q16531 whole entry partner): as the sequence (Q16531 whole entry partner) above
T4 sequence (Q9UKT9 whole entry): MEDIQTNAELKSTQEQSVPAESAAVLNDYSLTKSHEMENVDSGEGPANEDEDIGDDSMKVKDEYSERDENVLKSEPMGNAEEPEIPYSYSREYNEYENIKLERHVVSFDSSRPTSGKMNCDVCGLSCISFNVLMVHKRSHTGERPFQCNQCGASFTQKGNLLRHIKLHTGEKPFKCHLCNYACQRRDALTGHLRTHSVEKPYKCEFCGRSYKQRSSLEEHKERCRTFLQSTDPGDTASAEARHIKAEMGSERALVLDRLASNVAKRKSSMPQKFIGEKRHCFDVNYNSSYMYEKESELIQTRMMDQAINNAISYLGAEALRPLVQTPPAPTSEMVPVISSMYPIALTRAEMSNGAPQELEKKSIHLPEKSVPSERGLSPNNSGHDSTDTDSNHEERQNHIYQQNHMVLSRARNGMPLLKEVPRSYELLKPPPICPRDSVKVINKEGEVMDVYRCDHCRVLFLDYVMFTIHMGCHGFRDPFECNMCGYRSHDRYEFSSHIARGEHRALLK
T4 sequence (Q96SW2 whole entry): as the sequence (Q96SW2 whole entry) above
T4 sequence (Q16531 whole entry partner): as the sequence (Q16531 whole entry partner) above

SMILES | pIC50 [7] | Weel substrate protein remaining % [1] | IKZF 1 substrate protein remaining % [2] | IKZF2 substrate protein remaining % [3] | IKZF3 substrate protein remaining % [4] | CK1a substrate protein remaining % [5] | GSPT1 substrate protein remaining % [6]
O=C1CCC(N2Cc3cc(CN4CCN(c5ncccc5F)CC4)ccc3C2=O)C(=O)N1 (centres unmarked) [GT-04578, 3-(5-((4-(3-fluoropyridin-2-yl)piperazin-1-yl)methyl)-1-oxoisoindolin-2-yl)piperidine-2,6-dione] | 5.82 to 6.00 | B (80%< substrate protein remaining %≤ 100%) | B (80%< substrate protein remaining %≤ 100%) | A (0% ≤ substrate protein remaining % ≤ 80%) | B (80%< substrate protein remaining %≤ 100%) | A (0% ≤ substrate protein remaining % ≤ 80%) | A (0% ≤ substrate protein remaining % ≤ 80%)
O=C1CCC(N2Cc3cc(CN4CCN(c5ccncc5Br)CC4)ccc3C2=O)C(=O)N1 (centres unmarked) [GT-04580, 3-(5-((4-(3-bromopyridin-4-yl)piperazin-1-yl)methyl)-1-oxoisoindolin-2-yl)piperidine-2,6-dione] | 6.00 to 6.30 | A (0% ≤ substrate protein remaining % ≤ 80%) | A (0% ≤ substrate protein remaining % ≤ 80%) | A (0% ≤ substrate protein remaining % ≤ 80%) | A (0% ≤ substrate protein remaining % ≤ 80%) | A (0% ≤ substrate protein remaining % ≤ 80%) | B (80%< substrate protein remaining %≤ 100%)
O=C1CCC(N2Cc3cc(CN4CCN(c5ccncc5F)CC4)ccc3C2=O)C(=O)N1 (centres unmarked) [GT-04581, 3-(5-((4-(3-fluoropyridin-4-yl)piperazin-1-yl)methyl)-1-oxoisoindolin-2-yl)piperidine-2,6-dione] | 5.82 to 6.00 | B (80%< substrate protein remaining %≤ 100%) | B (80%< substrate protein remaining %≤ 100%) | A (0% ≤ substrate protein remaining % ≤ 80%) | A (0% ≤ substrate protein remaining % ≤ 80%) | B (80%< substrate protein remaining %≤ 100%) | B (80%< substrate protein remaining %≤ 100%)
O=C1CCC(N2Cc3cc(CN4CCC(c5ccoc5)CC4)ccc3C2=O)C(=O)N1 (centres unmarked) [GT-04590, 3-(5-((4-(furan-3-yl)piperidin-1-yl)methyl)-1-oxoisoindolin-2-yl)piperidine-2,6-dione] | 5.82 to 6.00 | B (80%< substrate protein remaining %≤ 100%) | B (80%< substrate protein remaining %≤ 100%) | A (0% ≤ substrate protein remaining % ≤ 80%) | B (80%< substrate protein remaining %≤ 100%) | B (80%< substrate protein remaining %≤ 100%) | A (0% ≤ substrate protein remaining % ≤ 80%)
O=C1CCC(N2Cc3cc(CN4CCN(c5c(Cl)cccc5Cl)CC4)ccc3C2=O)C(=O)N1 (centres unmarked) [GT-04613, 3-(5-((4-(2,6-dichlorophenyl)piperazin-1-yl)methyl)-1-oxoisoindolin-2-yl)piperidine-2,6-dione] | 5.82 to 6.00 | A (0% ≤ substrate protein remaining % ≤ 80%) | B (80%< substrate protein remaining %≤ 100%) | B (80%< substrate protein remaining %≤ 100%) | B (80%< substrate protein remaining %≤ 100%) | B (80%< substrate protein remaining %≤ 100%) | A (0% ≤ substrate protein remaining % ≤ 80%)

The next lines start with results.

pIC50 [7] | SMILES | Weel substrate protein remaining % [1] | IKZF 1 substrate protein remaining % [2] | IKZF2 substrate protein remaining % [3] | IKZF3 substrate protein remaining % [4] | CK1a substrate protein remaining % [5] | GSPT1 substrate protein remaining % [6]
6.00 to 6.30 | O=C1CCC(N2Cc3cc(CN4CCN(c5nccc(I)c5F)CC4)ccc3C2=O)C(=O)N1 (centres unmarked) [GT-04557, 3-(5-((4-(3-fluoro-4-iodopyridin-2-yl)piperazin-1-yl)methyl)-1-oxoisoindolin-2-yl)piperidine-2,6-dione] | A (0% ≤ substrate protein remaining % ≤ 80%) | A (0% ≤ substrate protein remaining % ≤ 80%) | A (0% ≤ substrate protein remaining % ≤ 80%) | A (0% ≤ substrate protein remaining % ≤ 80%) | A (0% ≤ substrate protein remaining % ≤ 80%) | A (0% ≤ substrate protein remaining % ≤ 80%)
5.72 to 5.82 | O=C1CCC(N2Cc3cc(CN4CCN(c5nccc(F)c5F)CC4)ccc3C2=O)C(=O)N1 (centres unmarked) [GT-04579, 3-(5-((4-(3,4-difluoropyridin-2-yl)piperazin-1-yl)methyl)-1-oxoisoindolin-2-yl)piperidine-2,6-dione] | B (80%< substrate protein remaining %≤ 100%) | B (80%< substrate protein remaining %≤ 100%) | B (80%< substrate protein remaining %≤ 100%) | B (80%< substrate protein remaining %≤ 100%) | A (0% ≤ substrate protein remaining % ≤ 80%) | B (80%< substrate protein remaining %≤ 100%)
5.72 to 5.82 | O=C1CCC(N2Cc3cc(CN4CCCC(C5CCNCC5)C4)ccc3C2=O)C(=O)N1 (centres unmarked) [GT-04591, 3-(5-([3,4'-bipiperidin]-1-ylmethyl)-1-oxoisoindolin-2-yl)piperidine-2,6-dione] | B (80%< substrate protein remaining %≤ 100%) | B (80%< substrate protein remaining %≤ 100%) | B (80%< substrate protein remaining %≤ 100%) | B (80%< substrate protein remaining %≤ 100%) | A (0% ≤ substrate protein remaining % ≤ 80%) | A (0% ≤ substrate protein remaining % ≤ 80%)
6.00 to 6.30 | O=C1CCC(N2Cc3cc(CN4CCN(c5c(Cl)cncc5Br)CC4)ccc3C2=O)C(=O)N1 (centres unmarked) [GT-04600, 3-(5-((4-(3-bromo-5-chloropyridin-4-yl)piperazin-1-yl)methyl)-1-oxoisoindolin-2-yl)piperidine-2,6-dione] | A (0% ≤ substrate protein remaining % ≤ 80%) | A (0% ≤ substrate protein remaining % ≤ 80%) | A (0% ≤ substrate protein remaining % ≤ 80%) | A (0% ≤ substrate protein remaining % ≤ 80%) | B (80%< substrate protein remaining %≤ 100%) | A (0% ≤ substrate protein remaining % ≤ 80%)
6.00 to 6.30 | O=C1CCC(N2Cc3cc(CN4CCN(c5c(F)cncc5Cl)CC4)ccc3C2=O)C(=O)N1 (centres unmarked) [GT-04611, 3-(5-((4-(3-chloro-5-fluoropyridin-4-yl)piperazin-1-yl)methyl)-1-oxoisoindolin-2-yl)piperidine-2,6-dione] | A (0% ≤ substrate protein remaining % ≤ 80%) | B (80%< substrate protein remaining %≤ 100%) | B (80%< substrate protein remaining %≤ 100%) | B (80%< substrate protein remaining %≤ 100%) | B (80%< substrate protein remaining %≤ 100%) | A (0% ≤ substrate protein remaining % ≤ 80%)
6.00 to 6.30 | O=C1CCC(N2Cc3cc(CN4CCN(c5ccnc(Cl)c5F)CC4)ccc3C2=O)C(=O)N1 (centres unmarked) [GT-04612, 3-(5-((4-(2-chloro-3-fluoropyridin-4-yl)piperazin-1-yl)methyl)-1-oxoisoindolin-2-yl)piperidine-2,6-dione] | A (0% ≤ substrate protein remaining % ≤ 80%) | B (80%< substrate protein remaining %≤ 100%) | B (80%< substrate protein remaining %≤ 100%) | B (80%< substrate protein remaining %≤ 100%) | B (80%< substrate protein remaining %≤ 100%) | A (0% ≤ substrate protein remaining % ≤ 80%)
